The structures appear in SMILES notation.

Results on 1 molecule are retold here after patent US9249159B2, “Composition for treating hepatitis C virus, regulating phosphorylation of replicase” (Industry-Academic Cooperation Foundation, Yonsei University, priority 2011, dated 2016).

Data set [1] deals with Rho-kinase I (ROCKI). The data set can be described thus: ROCKI level in Huh7 cell by immunoblotting. As to conditions: 48 hours. It is filed as cell-based.
Data set [2] relates to R-1 cell. The data set is described as follows: Cytotoxicity / cell viability in R-1 cell. It is filed as cell-based, human. As to conditions: R-1 cell versus parental Huh7, 72 hours. The procedure:
Cytotoxicity of 17-DMAG was measured by using a reagent MTS [3-(4,5-dimethylthiazol-2-yl)-5-(3-carboxylmethoxyphenyl)-2-(4-sulfophenyl)-2H-tetrazolium] (Promega, Madison, Wis., USA) according to the protocols of the manufacturer. The experiment was carried out as follows.
Huh7 or R-1 cells (2×10^4 cell/well) were seeded in a 96-well plate and treated with 17-DMAG at different concentrations for 72 hours. Then, the culture medium was removed and a MTS substrate dissolved in the culture medium containing 5% FBS was added to each well of the plate. The cells were cultured at 37° C. for 1 hour, and absorbance at 490 nm was read in a 96-well micro plate automatic reading system using GloMax-Multi detection system (Promega).
An experiment was carried out to check whether or not 17-DMAG inhibited virus RNA replication in an R-1 cell in which autonomous replication of a genotype 1b HCV subgenomic replicon RNA was maintained. Before antiviral activity of 17-DMAG was evaluated, an MTS assay was carried out to evaluate whether or not the drug interfered with cell viability. To be specific, the R-1 cell loaded with a selective HCV subgenomic replicon (upper diagram) and its parental cell line Huh7 were treated with 17-DMAG at a certain concentration for 72 hours, and cell viability was evaluated by the MTS assay.

Data set [3] has as its system HCV NS5B. The data set is described as follows: NS5B phosphorylation in Huh7TR-NS cell (anti-p-Ser immunoprecipitation, anti-NS5B immunoblot). Conditions: 17-DMAG 50 nM or HA1077 20 μM, 48 hours. Type of data set: cell-based, hepatitis C virus. The procedure:
The human hepatoma stable cell lines Huh7TR-4 and Huh7TR-NS [17], which express the tetracycline repressor and the HCV NS proteins (NS3-NS5) in a tetracycline-inducible manner, respectively, were maintained in the presence of blasticidin S (10 μg/mlL and Zeocine (100 μg/mL). NS protein expression in Huh7TR-NS was induced by addition of 1 μg/mL tetracycline for 24 h. The Huh7 cell-derived cell line R-1, supporting stable, autonomous replication of genotype 1b HCV subgenomic replicon RNA, was described previously. 17-DMAG, the PRK2 inhibitor, HA1077, and the inhibitor of phosphatidylinositol 3-kinase (PI3K), LY294002, were obtained from Sigma-Aldrich (St. Louis, Mo., USA) and Calbiochem Inc. (La Jolla, Calif., USA), and Biomol (Plymouth Meeting, Pa., USA), respectively. IFN-α was purchased from Sigma-Aldrich (1-4276).
For co-immunoprecipitation experiment, the cells were resuspended in lysis buffer A (100 mM Tris-HCl, pH 8.0, 150 mM NaCl, 1% Triton X-100, 10 mM NaF, 1 mM Na3VO4, 17.5 mM β-glycerophosphate) supplemented with an EDTA-free protease inhibitor cocktail (Roche Applied Science, Indianapolis, Ind., USA) and incubated on ice for 30 min. […]
Then, treatment with 17-DMAG (50 nM) or HA1077 (20 μM), a PRK2 inhibitor, was carried out for 48 hours. […] A case without treatment with an inhibitor was expressed as (−).
(In general: Immunoblotting shows a protein as a band on a membrane.)

For data set [4], the system named is genotype 2a HCV (JFH1)-infected Huh7 cells. The data set is described as follows: HCV RNA level in Huh7 cells infected with HCV (JFH1). It is filed as cell-based, hepatitis C virus genotype 2a. As to conditions: JFH1-infected Huh7 cell, 500 nM, 72 hours. The procedure: To do so, after the two cell lines were treated with the compound #17 at higher concentrations (60 and 100 μM) than 20 μM for 48 hours, an HCV RNA genome level was checked by a real-time RT-PCR analysis. A value was a mean±standard deviation (SD) of three independent measurements. HCV RNA titer was quantified by real-time PCR analysis. Three independent experiments were performed in triplicate.
Full-length, infectious HCV RNA of the genotype 2a HCV clone JFH1 was prepared by in vitro transcription using the MEGAscript T7 kit (Ambion, Austin, Tex., USA) and electroporated into Huh7 cells as described previously. Briefly, at 72 h post electroporation, culture medium was collected, cleared by low-speed centrifugation, and passed through a 0.45-μm filter (Millipore, Billerica, Mass., USA) before being used for infection of Huh7 cells. Cells were infected with HCV at a multiplicity of infection of 0.3 by adsorption for 3 h with periodic rocking, then washed three times with phosphate-buffered saline (PBS) and maintained in complete DMEM. […]
Total RNA was extracted from R-1 or HCV (JFH1)-infected cells using TRIzol LS reagent (Invitrogen, Carlsbad, Calif., USA) and purified according to the manufacturer's instructions. HCV RNA levels were quantified by RT-PCR using a primer pair and TaqMan probe targeting a region within the HCV 5′-UTR as described previously. […] Assays were performed using the DyNAmo Probe 2-step qRT-PCR Kit (Finnzymes, Espoo, Finland) and a CHROMO4 continuous fluorescence detector (Bio-Rad, Hercules, Calif., USA), according to the manufacturer's instructions.
In order to analyze whether or not 17-DMAG can inhibit replication in a cell infected with HCV, an experiment was carried out with the genotype 2a HCV infectious clone JFH1, which produces infectious virions in Huh7 or Huh7-derived cell lines. […] After 72 hours, total cellular RNA was extracted and HCV remaining in the infected cell was analyzed by quantitative RT-PCR.

Turning to `CO[C@H]1/C=C\C=C(/C)C(=O)NC2=CC(=O)C(NCCN(C)C)=C(C[C@@H](C)C[C@H](OC)[C@H](O)[C@@H](C)/C=C(\C)[C@@H]1OC(N)=O)C2=O` [17-DMAG, 17-(dimethylaminoethylamino)-17-demethoxygeldanamycin], the “steady state content of Rho-kinase I (ROCKI)” value in data set [1] is on record as “not significantly affected”. For the same molecule, the “sensitivity of cell viability (MTS assay)” value in data set [2] is reported as “more sensitive to 17-DMAG than the parental cell line Huh7”. The NS5B phosphorylation result in data set [3] is “inhibited NS5B phosphorylation”. The “decrease of level of viral RNA” value in data set [4] is “about 87%”.
